Test results published in ChEMBL document CHEMBL1201861, “Genomics of Drug Sensitity in Cancer screening data, Wellcome Trust Sanger Institute”.
pIC50: −log10 of the molar value.

Assays:
Experiment in all cases: cells
[1] = test system: SW780; format: functional, cell-based, Homo sapiens; conditions: Homo sapiens, SW780;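 further: growth inhibition of the cells, read out with a cell viability assay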
Description: SANGER: Inhibition of human SW780 cell growth in a cell viability assay.

[2] = test system: SW1710; format: functional, cell-based, Homo sapiens; conditions: Homo sapiens, SW1710;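 further: growth inhibition of SW1710 cells, determined with a cell viability assay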
Description: SANGER: Inhibition of human SW1710 cell growth in a cell viability assay.

[3] = test system: A-427; format: functional, cell-based, Homo sapiens; conditions: Homo sapiens, A-427;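 further: growth inhibition of human A-427 cells, read out by a cell viability assay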
Description: SANGER: Inhibition of human A427 cell growth in a cell viability assay.

[4] = test system: NCI-H1651; format: functional, cell-based, Homo sapiens; conditions: Homo sapiens, NCI-H1651;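 further: Read-out is a cell viability assay, with IC50 expressing inhibition of NCI-H1651 cell growth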
Description: SANGER: Inhibition of human NCI-H1651 cell growth in a cell viability assay.

[5] = test system: UACC-893; format: functional, cell-based, Homo sapiens; conditions: Homo sapiens, UACC-893
Description: SANGER: Inhibition of human UACC-893 cell growth in a cell viability assay.

[6] = test system: SK-HEP1; format: functional, cell-based, Homo sapiens, SK-HEP-1; conditions: Homo sapiens, SK-HEP1;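 further: cell viability readout used to quantify reduction in proliferation of human SK-HEP-1 cells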
Description: SANGER: Inhibition of human SK-HEP-1 cell growth in a cell viability assay.

[7] = test system: CHL-1; format: functional, cell-based, Homo sapiens; conditions: Homo sapiens, CHL-1;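 further: cell growth inhibition, read out with a cell viability assay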
Description: SANGER: Inhibition of human CHL-1 cell growth in a cell viability assay.

[8] = test system: HCT-15; format: functional, cell-based, Homo sapiens; conditions: Homo sapiens, HCT-15;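 further: cell viability readout, IC50 reflecting suppression of HCT-15 cell growth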
Description: SANGER: Inhibition of human HCT-15 cell growth in a cell viability assay.

[9] = test system: HuO-3N1; format: functional, cell-based, Homo sapiens; conditions: Homo sapiens, HuO-3N1;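 further: cell viability readout used to measure how strongly compounds suppress proliferation of human HuO-3N1 cells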
Description: SANGER: Inhibition of human HuO-3N1 cell growth in a cell viability assay.

[10] = test system: GMS-10; format: functional, cell-based, Homo sapiens; conditions: Homo sapiens, GMS-10;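 further: growth inhibition of GMS-10 cells, read out as cell viability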
Description: SANGER: Inhibition of human GMS-10 cell growth in a cell viability assay.

[11] = test system: NCI-H441; format: functional, cell-based, Homo sapiens; conditions: Homo sapiens, NCI-H441;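 further: growth inhibition of NCI-H441 cells, read out with a cell viability assay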
Description: SANGER: Inhibition of human NCI-H441 cell growth in a cell viability assay.

[12] = test system: CaR-1; format: functional, cell-based, Homo sapiens; conditions: Homo sapiens, CaR-1;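 further: growth inhibition of human CaR-1 cancer cells, read out with a cell viability assay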
Description: SANGER: Inhibition of human CaR-1 cell growth in a cell viability assay.

[13] = test system: NCI-H358; format: functional, cell-based, Homo sapiens; conditions: Homo sapiens, NCI-H358;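 further: growth inhibition of NCI-H358 human cells, read out with a cell viability assay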
Description: SANGER: Inhibition of human NCI-H358 cell growth in a cell viability assay.

[14] = test system: HTC-C3; format: functional, cell-based, Homo sapiens; conditions: Homo sapiens, HTC-C3;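 further: inhibition of cell growth, read out with a cell viability assay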
Description: SANGER: Inhibition of human HTC-C3 cell growth in a cell viability assay.

[15] = test system: SCC-4; format: functional, cell-based, Homo sapiens; conditions: Homo sapiens, SCC-4;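 further: growth inhibition of human SCC-4 cells, read out as cell viability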
Description: SANGER: Inhibition of human SCC-4 cell growth in a cell viability assay.

[16] = test system: U-118-MG; format: functional, cell-based, Homo sapiens; conditions: Homo sapiens, U-118-MG
Description: SANGER: Inhibition of human U-118-MG cell growth in a cell viability assay.

[17] = test system: DOK; format: functional, cell-based, Homo sapiens; conditions: Homo sapiens, DOK;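 further: cell viability assay read-out, values reflect inhibition of cell growth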
Description: SANGER: Inhibition of human DOK cell growth in a cell viability assay.

[18] = test system: HOP-92; format: functional, cell-based, Homo sapiens; conditions: Homo sapiens, HOP-92;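 further: cell viability readout, with IC50 reflecting inhibition of HOP-92 cell growth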
Description: SANGER: Inhibition of human HOP-92 cell growth in a cell viability assay.

[19] = test system: COLO-679; format: functional, cell-based, Homo sapiens; conditions: Homo sapiens, COLO-679
Description: SANGER: Inhibition of human COLO-679 cell growth in a cell viability assay.

[20] = test system: NCI-H596; format: functional, cell-based, Homo sapiens; conditions: Homo sapiens, NCI-H596;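 further: growth inhibition of NCI-H596 cells, read out with a cell viability assay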
Description: SANGER: Inhibition of human NCI-H596 cell growth in a cell viability assay.

[21] = test system: Hs-578T; format: functional, cell-based, Homo sapiens; conditions: Homo sapiens, Hs-578T
Description: SANGER: Inhibition of human Hs-578-T cell growth in a cell viability assay.

[22] = test system: OE33; format: functional, cell-based, Homo sapiens; conditions: Homo sapiens, OE33;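 further: growth inhibition of human OE33 cells, measured by a cell viability assay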
Description: SANGER: Inhibition of human OE33 cell growth in a cell viability assay.

[23] = test system: NCI-H2122; format: functional, cell-based, Homo sapiens; conditions: Homo sapiens, NCI-H2122;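 further: growth inhibition of the cells, read out with a cell viability assay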
Description: SANGER: Inhibition of human NCI-H2122 cell growth in a cell viability assay.

[24] = test system: BEN; format: functional, cell-based, Homo sapiens; conditions: Homo sapiens, BEN;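 further: growth inhibition of the BEN cell line, read out with a cell viability assay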
Description: SANGER: Inhibition of human BEN cell growth in a cell viability assay.

[25] = test system: PC-14; format: functional, cell-based, Homo sapiens; conditions: Homo sapiens, PC-14;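 further: cell viability assay measuring inhibition of PC-14 cell growth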
Description: SANGER: Inhibition of human PC-14 cell growth in a cell viability assay.

[26] = test system: CAL-27; format: functional, cell-based, Homo sapiens; conditions: Homo sapiens, CAL-27;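 further: Viability-based readout, IC50 reflecting inhibition of CAL-27 cell growth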
Description: SANGER: Inhibition of human CAL-27 cell growth in a cell viability assay.

[27] = test system: A2058; format: functional, cell-based, Homo sapiens; conditions: Homo sapiens, A2058;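 further: reduction of A2058 cell growth, read out with a viability assay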
Description: SANGER: Inhibition of human A2058 cell growth in a cell viability assay.

[28] = test system: A2780; format: functional, cell-based, Homo sapiens; conditions: Homo sapiens, A2780;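 further: growth inhibition of A2780 cells, read out with a cell viability assay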
Description: SANGER: Inhibition of human A2780 cell growth in a cell viability assay.

[29] = test system: RPMI-7951; format: functional, cell-based, Homo sapiens; conditions: Homo sapiens, RPMI-7951
Description: SANGER: Inhibition of human RPMI-7951 cell growth in a cell viability assay.

[30] = test system: T47D; format: functional, cell-based, Homo sapiens; conditions: Homo sapiens, T47D;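 further: growth inhibition of human T47D cells, measured with a cell viability assay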
Description: SANGER: Inhibition of human T47D cell growth in a cell viability assay.

[31] = test system: NCI-H2030; format: functional, cell-based, Homo sapiens; conditions: Homo sapiens, NCI-H2030;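 further: growth inhibition of human NCI-H2030 cells, read out by a cell viability assay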
Description: SANGER: Inhibition of human NCI-H2030 cell growth in a cell viability assay.

[32] = test system: NCI-H1793; format: functional, cell-based, Homo sapiens; conditions: Homo sapiens, NCI-H1793;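 further: cell growth inhibition, read out by a cell viability assay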
Description: SANGER: Inhibition of human NCI-H1793 cell growth in a cell viability assay.

[33] = test system: NCI-H727; format: functional, cell-based, Homo sapiens; conditions: Homo sapiens, NCI-H727;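 further: growth inhibition of human NCI-H727 cells, read out with a cell viability assay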
Description: SANGER: Inhibition of human NCI-H727 cell growth in a cell viability assay.

[34] = test system: COR-L105; format: functional, cell-based, Homo sapiens; conditions: Homo sapiens, COR-L105;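 further: cell growth inhibition determined with a viability assay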
Description: SANGER: Inhibition of human COR-L105 cell growth in a cell viability assay.

[35] = test system: Kasumi 1; format: functional, cell-based, Homo sapiens; conditions: Homo sapiens, Kasumi 1;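 further: growth inhibition of human Kasumi-1 cells, read out by a cell viability assay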
Description: SANGER: Inhibition of human KASUMI-1 cell growth in a cell viability assay.

[36] = test system: YKG-1; format: functional, cell-based, Homo sapiens; conditions: Homo sapiens, YKG-1;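 further: cell growth inhibition, read out with a viability assay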
Description: SANGER: Inhibition of human YKG-1 cell growth in a cell viability assay.

[37] = test system: TCC-SUP; format: functional, cell-based, Homo sapiens; conditions: Homo sapiens, TCC-SUP;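 further: growth inhibition of TCC-SUP cells, read out with a cell viability assay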
Description: SANGER: Inhibition of human TCCSUP cell growth in a cell viability assay.

[38] = test system: NCI-H650; format: functional, cell-based, Homo sapiens; conditions: Homo sapiens, NCI-H650;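 further: growth inhibition of NCI-H650 cells, read out by a viability assay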
Description: SANGER: Inhibition of human NCI-H650 cell growth in a cell viability assay.

[39] = test system: 8305C; format: functional, cell-based, Homo sapiens; conditions: Homo sapiens, 8305C
Description: SANGER: Inhibition of human 8305C cell growth in a cell viability assay.

[40] = test system: NCI-H292; format: functional, cell-based, Homo sapiens; conditions: Homo sapiens, NCI-H292;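 further: growth inhibition of NCI-H292 cells, read out with a cell viability assay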
Description: SANGER: Inhibition of human NCI-H292 cell growth in a cell viability assay.

[41] = test system: AGS; format: functional, cell-based, Homo sapiens; conditions: Homo sapiens, AGS;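 further: growth inhibition of AGS cells, determined with a cell viability assay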
Description: SANGER: Inhibition of human AGS cell growth in a cell viability assay.

[42] = test system: SK-MM-2; format: functional, cell-based, Homo sapiens; conditions: Homo sapiens, SK-MM-2;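 further: growth inhibition of human SK-MM-2 cells, read out with a cell viability assay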
Description: SANGER: Inhibition of human SK-MM-2 cell growth in a cell viability assay.

[43] = test system: NCI-H1694; format: functional, cell-based, Homo sapiens; conditions: Homo sapiens, NCI-H1694;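 further: cell viability assay measuring inhibition of growth in human NCI-H1694 cells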
Description: SANGER: Inhibition of human NCI-H1694 cell growth in a cell viability assay.

[44] = test system: CMK; format: functional, cell-based, Homo sapiens; conditions: Homo sapiens, CMK;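 further: growth inhibition of CMK cells, read out as cell viability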
Description: SANGER: Inhibition of human CMK cell growth in a cell viability assay.

[45] = test system: EHEB; format: functional, cell-based, Homo sapiens; conditions: Homo sapiens, EHEB;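 further: growth inhibition of human EHEB cells, read out with a cell viability assay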
Description: SANGER: Inhibition of human EHEB cell growth in a cell viability assay.

[46] = test system: SR; format: functional, cell-based, Homo sapiens; conditions: Homo sapiens, SR
Description: SANGER: Inhibition of human SR cell growth in a cell viability assay.

[47] = test system: SIMA; format: functional, cell-based, Homo sapiens; conditions: Homo sapiens, SIMA;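 further: growth inhibition of SIMA cells, measured with a cell viability readout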
Description: SANGER: Inhibition of human SIMA cell growth in a cell viability assay.

[48] = test system: SCC-3; format: functional, cell-based, Homo sapiens; conditions: Homo sapiens, SCC-3;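 further: cell viability assay measuring inhibition of SCC-3 cell growth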
Description: SANGER: Inhibition of human SCC-3 cell growth in a cell viability assay.

[49] = test system: OPM-2; format: functional, cell-based, Homo sapiens; conditions: Homo sapiens, OPM-2;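 further: growth of OPM-2 cells measured with a viability assay, IC50 for suppression of proliferation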
Description: SANGER: Inhibition of human OPM-2 cell growth in a cell viability assay.

`Cc1cn(-c2cc(NC(=O)c3ccc(C)c(Nc4nccc(-c5cccnc5)n4)c3)cc(C(F)(F)F)c2)cn1` [NILOTINIB] was tested, and the pIC50 [1] was < 5.70, the pIC50 [2] was < 5.70 and the pIC50 [3] was < 5.70. For the same molecule, the pIC50 [4] was < 5.70, the pIC50 [5] was < 5.70 and the pIC50 [6] was < 5.70. The pIC50 [7] was < 5.70, the pIC50 [8] was < 5.70 and the pIC50 [9] was < 5.70. The pIC50 [10] was < 5.70, the pIC50 [11] was < 5.70 and the pIC50 [12] was < 5.70. The pIC50 [13] was < 5.70, the pIC50 [14] was < 5.70 and the pIC50 [15] was < 5.70. The pIC50 [16] was < 5.70, the pIC50 [17] was < 5.70 and the pIC50 [18] was < 5.70. For the same molecule, the pIC50 [19] was < 5.70, the pIC50 [20] was < 5.70 and the pIC50 [21] was < 5.70. For the same molecule, the pIC50 [22] was < 5.70, the pIC50 [23] was < 5.70 and the pIC50 [24] was < 5.70. For the same molecule, the pIC50 [25] was < 5.70, the pIC50 [26] was < 5.70 and the pIC50 [27] was < 5.70. For the same molecule, the pIC50 [28] was < 5.70, the pIC50 [29] was < 5.70 and the pIC50 [30] was < 5.70. The pIC50 [31] was < 5.70, the pIC50 [32] was < 5.70 and the pIC50 [33] was < 5.70. For the same molecule, the pIC50 [34] was < 5.70, the pIC50 [35] was 7.62 and the pIC50 [36] was < 5.70. For the same molecule, the pIC50 [37] was < 5.70, the pIC50 [38] was < 5.70 and the pIC50 [39] was < 5.70. The pIC50 [40] was < 5.70 and the pIC50 [41] was < 5.70.
For `N#Cc1c(O)c2c(-c3ccc(-c4ccccc4O)cc3)csc2[nH]c1=O`, the pIC50 [42] was 6.96, the pIC50 [1] was < 5.99 and the pIC50 [2] was < 5.99. The pIC50 [3] was < 5.99, the pIC50 [4] was < 5.99 and the pIC50 [5] was < 5.99. The pIC50 [6] was < 5.99, the pIC50 [43] was 6.01 and the pIC50 [7] was < 5.99. The pIC50 [8] was < 5.99, the pIC50 [44] was 8.66 and the pIC50 [9] was < 5.99. For the same molecule, the pIC50 [45] was 7.20, the pIC50 [10] was < 5.99 and the pIC50 [11] was < 5.99. The pIC50 [12] was < 5.99, the pIC50 [13] was < 5.99 and the pIC50 [14] was < 5.99. For the same molecule, the pIC50 [15] was < 5.99, the pIC50 [16] was < 5.99 and the pIC50 [17] was < 5.99. The pIC50 [18] was < 5.99, the pIC50 [19] was < 5.99 and the pIC50 [20] was < 5.99. For the same molecule, the pIC50 [21] was < 5.99, the pIC50 [22] was < 5.99 and the pIC50 [23] was < 5.99. For the same molecule, the pIC50 [24] was < 5.99, the pIC50 [25] was < 5.99 and the pIC50 [26] was < 5.99. For the same molecule, the pIC50 [27] was < 5.99, the pIC50 [28] was < 5.99 and the pIC50 [29] was < 5.99. The pIC50 [46] was 6.94, the pIC50 [30] was < 5.99 and the pIC50 [31] was < 5.99. The pIC50 [32] was < 5.99, the pIC50 [33] was < 5.99 and the pIC50 [34] was < 5.99. The pIC50 [35] was 7.38, the pIC50 [36] was < 5.99 and the pIC50 [47] was < 5.99. The pIC50 [48] was < 5.99, the pIC50 [49] was 6.66 and the pIC50 [37] was < 5.99. For the same molecule, the pIC50 [38] was < 5.99, the pIC50 [39] was < 5.99 and the pIC50 [40] was < 5.99. The pIC50 [41] was < 5.99.
